In patent publication US20250205259A1, “CLASS OF 7-((FIVE-MEMBERED HETEROCYCLIC)METHYL)-8-CARBOXYLIC ACID-BENZO CYCLIC BORATE DERIVATIVES AND USES THEREOF” (priority 2022, published 2025):
pIC50: −log10 of the molar value. Where two headings read alike, the source gives them in different places.

Key:
Assay type in all cases: biochemical
[1] = biological target: TEM-1 (Escherichia coli, UniProt P62593); assay: Inhibitory activity on SBL, fluorescent substrate FC-5; settings: read-out: Inhibitory activity on SBL TEM-1 (IC50 class)
Chain of TEM-1 (P62593 24-286 limits assumed): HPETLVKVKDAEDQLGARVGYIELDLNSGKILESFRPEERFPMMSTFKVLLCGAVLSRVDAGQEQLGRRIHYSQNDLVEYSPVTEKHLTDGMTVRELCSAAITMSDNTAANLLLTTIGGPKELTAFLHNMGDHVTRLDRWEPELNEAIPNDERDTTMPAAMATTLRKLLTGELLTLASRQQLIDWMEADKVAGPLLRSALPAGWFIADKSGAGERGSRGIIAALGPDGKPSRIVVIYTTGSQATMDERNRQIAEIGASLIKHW

[2] = biological target: T1, SHV-12 (UniProt P0AD64, L31Q/G234S/E235K, species not given); assay: as above; settings: read-out: Inhibitory activity on SBL SHV-12 (IC50 class)
T1 sequence (P0AD64 1-286 L31Q/G234S/E235K): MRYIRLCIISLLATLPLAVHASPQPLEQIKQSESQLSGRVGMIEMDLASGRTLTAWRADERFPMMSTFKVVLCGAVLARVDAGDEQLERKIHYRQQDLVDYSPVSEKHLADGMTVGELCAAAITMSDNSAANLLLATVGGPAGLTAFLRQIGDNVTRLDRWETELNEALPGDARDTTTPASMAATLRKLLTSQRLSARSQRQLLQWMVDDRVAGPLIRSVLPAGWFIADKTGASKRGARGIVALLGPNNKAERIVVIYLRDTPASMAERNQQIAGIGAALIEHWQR

[3] = biological target: VIM-2 (Escherichia coli, UniProt Q5U7L7); assay: Inhibitory activity on MBL, fluorescent substrate FC-5; settings: read-out: Inhibitory activity on MBL VIM-2 (IC50 class)
[4] = biological target: NDM-1 (Klebsiella pneumoniae, UniProt C7C422); assay: as above
Chain of NDM-1 (C7C422 29-270 limits assumed): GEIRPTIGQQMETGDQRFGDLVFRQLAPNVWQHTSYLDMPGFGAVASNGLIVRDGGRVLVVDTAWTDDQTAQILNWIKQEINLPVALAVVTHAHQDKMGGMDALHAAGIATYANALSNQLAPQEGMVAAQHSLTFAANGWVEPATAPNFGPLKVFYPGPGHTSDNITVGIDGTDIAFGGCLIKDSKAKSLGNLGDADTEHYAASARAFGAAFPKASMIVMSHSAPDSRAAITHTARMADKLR

[5] = biological target: VIM-1 (Pseudomonas aeruginosa, UniProt A0A0F7KYQ8); assay: as above
[6] = biological target: CTX-M-14 (Escherichia coli, UniProt Q9L5C7); assay: Inhibitory activity on SBL, fluorescent substrate FC-5; settings: read-out: Inhibitory activity on SBL CTX-M-14 (IC50 class)
Chain of CTX-M-14 (Q9L5C7 entry or part of it): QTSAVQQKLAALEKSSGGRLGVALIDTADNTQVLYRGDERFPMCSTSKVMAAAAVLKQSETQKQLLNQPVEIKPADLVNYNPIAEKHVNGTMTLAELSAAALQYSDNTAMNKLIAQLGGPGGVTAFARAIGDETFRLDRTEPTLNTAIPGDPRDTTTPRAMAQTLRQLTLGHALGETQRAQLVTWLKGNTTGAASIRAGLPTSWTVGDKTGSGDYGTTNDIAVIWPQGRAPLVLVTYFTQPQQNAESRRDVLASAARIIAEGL

[7] = biological target: NDM-5 (Klebsiella pneumoniae, UniProt C7C422, M154L/V88L); assay: Inhibitory activity on MBL, fluorescent substrate FC-5
Chain of NDM-5 (C7C422 29-270 V88L/M154L): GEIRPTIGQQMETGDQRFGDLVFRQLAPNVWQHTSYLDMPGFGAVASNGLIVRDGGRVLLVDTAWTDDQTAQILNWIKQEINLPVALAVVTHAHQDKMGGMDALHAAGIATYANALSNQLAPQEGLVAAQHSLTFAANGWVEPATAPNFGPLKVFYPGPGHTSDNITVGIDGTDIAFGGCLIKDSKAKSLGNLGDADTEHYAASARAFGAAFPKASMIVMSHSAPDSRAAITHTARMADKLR

[8] = biological target: KPC-2 (Klebsiella pneumoniae, UniProt Q9F663); assay: Inhibitory activity on SBL, fluorescent substrate FC-5; settings: read-out: Inhibitory activity on SBL KPC-2 (IC50 class)
Chain of KPC-2 (Q9F663 25-293 limits assumed): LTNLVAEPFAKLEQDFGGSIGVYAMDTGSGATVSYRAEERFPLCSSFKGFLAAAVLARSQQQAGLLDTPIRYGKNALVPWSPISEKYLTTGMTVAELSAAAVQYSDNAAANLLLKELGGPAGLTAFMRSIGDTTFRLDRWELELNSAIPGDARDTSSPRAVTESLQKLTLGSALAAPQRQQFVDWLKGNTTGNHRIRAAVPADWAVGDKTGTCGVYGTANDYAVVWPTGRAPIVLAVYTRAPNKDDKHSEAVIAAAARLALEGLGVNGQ

[9] = biological target: IMP-1 (Serratia marcescens, UniProt P52699); assay: Inhibitory activity on MBL, fluorescent substrate FC-5; settings: read-out: Inhibitory activity on MBL IMP-1 (IC50 class)
Chain of IMP-1 (P52699 19-246 limits assumed): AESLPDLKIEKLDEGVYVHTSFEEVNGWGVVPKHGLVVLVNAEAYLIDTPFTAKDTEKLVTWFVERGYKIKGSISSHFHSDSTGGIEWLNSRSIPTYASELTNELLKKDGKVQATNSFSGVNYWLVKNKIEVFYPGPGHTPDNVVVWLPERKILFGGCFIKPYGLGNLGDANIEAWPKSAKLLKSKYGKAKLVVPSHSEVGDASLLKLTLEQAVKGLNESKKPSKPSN

[10] = biological target: OXA-48 (Klebsiella pneumoniae, UniProt Q6XEC0); assay: Inhibitory activity on SBL, fluorescent substrate FC-5; settings: read-out: Inhibitory activity on SBL OXA-48 (IC50 class)
Chain of OXA-48 (Q6XEC0 23-265 limits assumed): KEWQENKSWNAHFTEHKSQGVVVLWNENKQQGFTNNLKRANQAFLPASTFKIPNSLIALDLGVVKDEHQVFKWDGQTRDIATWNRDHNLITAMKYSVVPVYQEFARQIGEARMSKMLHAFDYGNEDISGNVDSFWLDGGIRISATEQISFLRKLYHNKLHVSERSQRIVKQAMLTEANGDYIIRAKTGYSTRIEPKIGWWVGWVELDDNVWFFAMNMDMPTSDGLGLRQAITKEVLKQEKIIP

[11] = read-out: Inhibitory activity on MBL NDM-1 (IC50 class)
[12] = read-out: Inhibitory activity on MBL VIM-1 (IC50 class)
[13] = read-out: Inhibitory activity on MBL NDM-5 (IC50 class)
[14] = read-out: inhibitory activity at a nanomolar-level on NDM-1
[15] = read-out: inhibitory activity at a nanomolar-level on NDM-5
[16] = VIM-1 and/or VIM-2, read-out: inhibitory activity at a nanomolar-level on VIM-1 and/or VIM-2

Row | Structure (SMILES) | pIC50 [1] | pIC50 [2] | pIC50 [3] | pIC50 [4, 11] | pIC50 [5, 12] | pIC50 [6] | pIC50 [7, 13] | pIC50 [8] | pIC50 [9] | pIC50 [10] | pIC50 [4, 14] | pIC50 [7, 15] | pIC50 ([7]; Inhibitory activity on MBL NDM-5 (IC50 class)) | pIC50 ([7]; inhibitory activity at a nanomolar-level on NDM-5) | pIC50 [5, 16]
1 | O=C(O)c1c(CN2CC=CC2)ccc2c1OB(O)CC2 [Compound 26] | 6.00 to 8.00 | 6.00 to 8.00 | 4.00 to 6.00 | 4.00 to 6.00 | 4.00 to 6.00 | 6.00 to 8.00 | 4.00 to 6.00 | > 8.00 | 4.00 to 6.00 | 6.00 to 8.00 | – | – | – | – | –
2 | O=C(O)c1c(Cn2cc([N+](=O)[O-])cn2)ccc2c1OB(O)CC2 [Compound 31] | 6.00 to 8.00 | 6.00 to 8.00 | 6.00 to 8.00 | 6.00 to 8.00 | 4.00 to 6.00 | 6.00 to 8.00 | 6.00 to 8.00 | > 8.00 | 4.00 to 6.00 | > 8.00 | > 6.00 | > 6.00 | – | – | –
3 | Nc1cnn(Cc2ccc3c(c2C(=O)O)OB(O)CC3)c1 [Compound 32] | 6.00 to 8.00 | 6.00 to 8.00 | 6.00 to 8.00 | 6.00 to 8.00 | 4.00 to 6.00 | > 8.00 | 6.00 to 8.00 | > 8.00 | 4.00 to 6.00 | > 8.00 | > 6.00 | > 6.00 | – | – | –
4 | NS(=O)(=O)Nc1cnn(Cc2ccc3c(c2C(=O)O)OB(O)CC3)c1 [Compound 34] | > 8.00 | 6.00 to 8.00 | 6.00 to 8.00 | 6.00 to 8.00 | 4.00 to 6.00 | > 8.00 | – | > 8.00 | 4.00 to 6.00 | > 8.00 | > 6.00 | – | 6.00 to 8.00 | > 6.00 | –
5 | NCCNCc1cnn(Cc2ccc3c(c2C(=O)O)OB(O)CC3)c1 [Compound 35] | > 8.00 | 6.00 to 8.00 | 6.00 to 8.00 | 4.00 to 6.00 | 4.00 to 6.00 | 6.00 to 8.00 | 6.00 to 8.00 | 6.00 to 8.00 | 4.00 to 6.00 | > 8.00 | – | – | – | – | –
6 | NS(=O)(=O)NCc1cnn(Cc2ccc3c(c2C(=O)O)OB(O)CC3)c1 [Compound 36] | > 8.00 | 6.00 to 8.00 | 6.00 to 8.00 | 6.00 to 8.00 | 4.00 to 6.00 | 6.00 to 8.00 | 6.00 to 8.00 | > 8.00 | 4.00 to 6.00 | > 8.00 | > 6.00 | > 6.00 | – | – | –
7 | NC1(c2cnn(Cc3ccc4c(c3C(=O)O)OB(O)CC4)c2)CC1 [Compound 40] | > 8.00 | 6.00 to 8.00 | 6.00 to 8.00 | 4.00 to 6.00 | 4.00 to 6.00 | 6.00 to 8.00 | 6.00 to 8.00 | > 8.00 | 4.00 to 6.00 | 6.00 to 8.00 | – | – | – | – | –
8 | NCc1ccn(Cc2ccc3c(c2C(=O)O)OB(O)CC3)n1 [Compound 42] | > 8.00 | 6.00 to 8.00 | 6.00 to 8.00 | 6.00 to 8.00 | 6.00 to 8.00 | 6.00 to 8.00 | 6.00 to 8.00 | > 8.00 | 4.00 to 6.00 | 6.00 to 8.00 | > 6.00 | > 6.00 | – | – | > 6.00
9 | O=C(O)c1c(CN2C[C@H](O)CC2=O)ccc2c1OB(O)CC2 [Compound 44] | 6.00 to 8.00 | 6.00 to 8.00 | 6.00 to 8.00 | 6.00 to 8.00 | 6.00 to 8.00 | 6.00 to 8.00 | 6.00 to 8.00 | 6.00 to 8.00 | 4.00 to 6.00 | 6.00 to 8.00 | > 6.00 | > 6.00 | – | – | > 6.00
10 | N=C(N)NCCCc1cn(Cc2ccc3c(c2C(=O)O)OB(O)CC3)nn1 [Compound 48] | 6.00 to 8.00 | 6.00 to 8.00 | 6.00 to 8.00 | 4.00 to 6.00 | 4.00 to 6.00 | 6.00 to 8.00 | 6.00 to 8.00 | > 8.00 | 4.00 to 6.00 | 6.00 to 8.00 | – | – | – | – | –
11 | N=C(N)NCCc1cnn(Cc2ccc3c(c2C(=O)O)OB(O)CC3)c1 [Compound 50] | 6.00 to 8.00 | 6.00 to 8.00 | 4.00 to 6.00 | 4.00 to 6.00 | 4.00 to 6.00 | 6.00 to 8.00 | 6.00 to 8.00 | > 8.00 | 4.00 to 6.00 | 6.00 to 8.00 | – | – | – | – | –
12 | NS(=O)(=O)NCCc1cn(Cc2ccc3c(c2C(=O)O)OB(O)CC3)nn1 [Compound 51] | 6.00 to 8.00 | 6.00 to 8.00 | 6.00 to 8.00 | 6.00 to 8.00 | 4.00 to 6.00 | 6.00 to 8.00 | 6.00 to 8.00 | > 8.00 | 4.00 to 6.00 | > 8.00 | > 6.00 | > 6.00 | – | – | –
13 | O=C(O)c1c(Cn2cc3c(n2)CNC3)ccc2c1OB(O)[C@@H]1C[C@H]21 [Compound 53] | 6.00 to 8.00 | 6.00 to 8.00 | 6.00 to 8.00 | 6.00 to 8.00 | 4.00 to 6.00 | 6.00 to 8.00 | 6.00 to 8.00 | > 8.00 | 4.00 to 6.00 | > 8.00 | > 6.00 | > 6.00 | – | – | –
14 | O=C(O)c1c(Cn2cc3c(n2)CNC3)ccc2c1OB(O)[C@H]1C[C@@H]21 [Compound 54] | 4.00 to 6.00 | 6.00 to 8.00 | 6.00 to 8.00 | 6.00 to 8.00 | 4.00 to 6.00 | 6.00 to 8.00 | 6.00 to 8.00 | 6.00 to 8.00 | 4.00 to 6.00 | 6.00 to 8.00 | > 6.00 | > 6.00 | – | – | –
15 | NS(=O)(=O)N1Cc2cn(Cc3ccc4c(c3C(=O)O)OB(O)CC4)nc2C1 [Compound 57] | > 8.00 | 6.00 to 8.00 | 6.00 to 8.00 | 6.00 to 8.00 | 6.00 to 8.00 | > 8.00 | 6.00 to 8.00 | > 8.00 | 4.00 to 6.00 | > 8.00 | > 6.00 | > 6.00 | – | – | > 6.00
